Data on 21 compounds can be found in ChEMBL document CHEMBL3045638, “Quantitative structure-activity relationship of terpenoid aphid antifeedants” (2008).

This assay concerns Lipaphis erysimi. Briefly: Antifeedant activity against apterous adult stage of Lipaphis erysimi (mustard aphids) in compound pre-treated cabbage leaves assessed as antifeedant ratio measured after 48 hr. The class given is functional.
In the case of `CCC(=O)OC1CC(C(C)(C)O)CC=C1C` (stereo unspecified), the Ratio was determined as 0.526. The same measure for `CC(=O)OC1CC(C)CCC1C(C)C` (stereo unspecified): 0.533; for `C=C(C)C1CC=C(CCOC(C)=O)CC1` (stereo unspecified): 0.674; for `C=C(C)C1CC=C(CCOC(=O)CC)CC1` (stereo unspecified): 0.701.

As to `CC1=CCC(C(C)(C)O)CC1OC=O` (stereo unspecified), the Ratio is listed as 0.42. With `CC(=O)OCCC1C2CCC(C2)C1(C)C` (stereo unspecified), the Ratio is 0.628.

As to `CCCOCCC1=CCC2CC1C2(C)C` (stereo unspecified), the Ratio is 0.504. The same measure for `CC1(C)C2CC=C(CCOC=O)C1C2` (stereo unspecified): 0.518; for `CCC(CCCC1C2CCC(C2)C1(C)C)OC(C)=O` (stereo unspecified): 0.83; for `CCC(CCC1C2CCC(C2)C1(C)C)C(C)OC(C)=O` (stereo unspecified): 0.786. As for `CCC(=O)OC1CC(C)CCC1C(C)C` (stereo unspecified), the figure is 0.505; as for `CCOCCC1=CCC2CC1C2(C)C` (stereo unspecified), 0.522. Consider `CC(=O)OCCC1=CCC2CC1C2(C)C` (stereo unspecified), for which the Ratio was 0.572. Consider `CCC(=O)OCCC1=CCC2CC1C2(C)C` (stereo unspecified), for which the Ratio is recorded as 0.63. The same measure for `CC1(C)C2CC3OC3(C)C1C2` (stereo unspecified): 0.415; for `COCCC1=CCC2CC1C2(C)C` (stereo unspecified): 0.548; for `CC(=O)OC1CC(C(C)(C)O)CC=C1C` (stereo unspecified): 0.476. As for `CCCC(CCCC1C2CCC(C2)C1(C)C)OC(C)=O` (stereo unspecified), the figure is 0.813; as for `CC1CCC(C(C)C)C(O)C1` (stereo unspecified) [MENTHOL], 0.584; as for `CC1(C)C2CC=C(CCO)C1C2` (stereo unspecified) [Nopol], 0.47. Regarding `CC1=CCC(C(C)(C)O)CC1O` (stereo unspecified) [SOBREROL], the Ratio is on record as 0.463.
